The target in the test is T1, human NPRA (Homo sapiens, UniProt P16066).
T1 construct: Full-Length cDNA Cloning and Generation of Cell Lines Overexpressing Natriuretic Peptide Receptors (NPRs); expressed in transfected cells; host or cells: Jump-in T-Rex HEK293 cells, pJTI R4 CMV-TO MCS pA vector, tetracycline induction
T1 sequence (P16066 33-1061): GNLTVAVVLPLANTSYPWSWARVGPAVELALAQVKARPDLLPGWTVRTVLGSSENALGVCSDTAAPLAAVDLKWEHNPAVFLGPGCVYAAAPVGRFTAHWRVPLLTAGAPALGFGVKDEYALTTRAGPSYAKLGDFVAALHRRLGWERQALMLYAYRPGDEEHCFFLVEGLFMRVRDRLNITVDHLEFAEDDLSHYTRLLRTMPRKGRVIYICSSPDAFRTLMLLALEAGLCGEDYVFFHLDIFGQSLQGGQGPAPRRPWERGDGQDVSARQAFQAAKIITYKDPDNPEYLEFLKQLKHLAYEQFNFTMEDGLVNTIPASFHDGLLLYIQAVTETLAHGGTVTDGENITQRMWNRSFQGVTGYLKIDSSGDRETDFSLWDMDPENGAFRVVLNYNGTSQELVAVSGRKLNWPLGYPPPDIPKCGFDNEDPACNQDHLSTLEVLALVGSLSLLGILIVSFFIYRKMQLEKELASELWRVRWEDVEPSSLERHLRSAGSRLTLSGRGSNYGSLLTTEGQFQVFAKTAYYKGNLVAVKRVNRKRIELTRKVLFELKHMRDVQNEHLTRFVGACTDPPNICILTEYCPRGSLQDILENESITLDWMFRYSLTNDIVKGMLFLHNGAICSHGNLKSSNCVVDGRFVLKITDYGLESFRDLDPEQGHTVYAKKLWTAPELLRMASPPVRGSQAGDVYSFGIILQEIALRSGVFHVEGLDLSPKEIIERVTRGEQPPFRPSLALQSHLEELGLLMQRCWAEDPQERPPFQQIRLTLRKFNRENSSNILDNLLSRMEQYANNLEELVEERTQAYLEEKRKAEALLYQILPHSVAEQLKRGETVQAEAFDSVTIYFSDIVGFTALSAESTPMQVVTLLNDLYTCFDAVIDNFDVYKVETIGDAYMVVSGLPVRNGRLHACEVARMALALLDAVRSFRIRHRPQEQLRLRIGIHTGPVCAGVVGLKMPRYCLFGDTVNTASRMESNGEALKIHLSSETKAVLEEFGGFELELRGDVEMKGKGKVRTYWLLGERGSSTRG
The test can be described thus: Human NPRA cGMP activity assay (HTRF) in HEK293 cells overexpressing NPRA. It counts as cell-based. How it is done:
All sequences were verified by full-length sequencing performed by ACGT DNA Sequencing Services (Wheeling, IL). The target cDNA was cloned into pJTI R4 CMV-TO MCS pA vector and then co-transfected with pJT1R4 Int vector into Jump-in™ T-Rex™ HEK293 cells for mammalian inducible expression using Jump-in™ T-Rex™ HEK293 kit and Lipofectamine LTX and Plus Reagent following manufacturer's protocols, as briefly described below.
Jump-in™ T-Rex™ HEK293 cells were plated in a BioCOAT® poly-D-lysine coated 6-well plate (Becton Dickinson, cat no. 354413) at 1 million cells/well in 2 mL culture medium and incubated for 18 h at 37° C. and 5% CO2 to 50-70% confluence. A cDNA mix was made in a 50 mL tube by adding 1.5 μg target cDNA, 1.5 μg pJT1R4 Int vector, 3 μL Plus Reagent, and 300 μL Opti-MEM I sequentially into the tube. A reagent mix was made in a separate 50 mL tube by adding 7.5 μL Lipofectamine LTX into 300 μL Opti-MEM I. The mixtures were incubated for 5 min at room temperature. The cDNA mix was then transferred into the reagent mix, mixed well, and incubated for additional 30 min at room temperature. A 500 μL of cDNA/Lipofectamine complex was then transferred to the wells of the cell plate in which the culture medium was changed to 2 mL of transfection medium containing DMEM with 4.5 g/L D-glucose supplemented with 10% FBS-HI and 20 mM HEPES. Transfected cells were cultured for 48 h in an incubator at 37° C. and 5% CO2. A subclone or pool from each overexpressing cell line was maintained in culture medium with the addition of 2 mg/mL G418 sulfate for the clone selection based on its built-in resistance to G418 sulfate for at least 3 weeks with medium changed every 2-3 days.
NPRs were overexpressed in T-Rex™ HEK293 cells following the induction with 300 ng/mL tetracycline in culture medium for 48 h. Induced cell lines in an exponential growth phase were treated with 0.05% trypsin-EDTA for a few seconds at room temperature, harvested in cell medium containing FBS to neutralize the trypsin, counted, and cryopreserved at the density of 2 million cells/mL in cell preservation solution containing FBS-HI with 5% DMSO. Cryopreserved cells were stored at −80° C. for a few days prior to transferring to a liquid nitrogen tank. Induced cell lines were then used for suspension assays to measure the activity of polypeptides to stimulate cGMP production in cGMP assays or for the preparation of cell membranes to measure the binding activity of polypeptides in competitive radioligand binding assays, as described below.
Test polypeptides were added starting at 10 μM concentration and at 10-fold decreasing concentrations to obtain 8-point concentration-response curves (i.e., 10 μM to 1 pM). The quantity of cGMP generated was detected using HTRF® technology and normalized to maximum amount produced by 100 nM amidated rat ANP and the minimum amount produced by assay buffer. Detailed steps are outlined below.
Stock solutions of test polypeptides (2 mM) dissolved in DMSO were first diluted 100-fold in assay buffer containing HBSS with Ca^2+ and Mg^2+, 5 mM HEPES, 0.5 mM IBMX, and 0.1% BSA or 0.1% casein (pH 7.4). The polypeptides were further serially diluted in 1:10 dilution steps in assay buffer containing 0.1% BSA or 0.1% casein to generate 8-point 2× working stock solutions ranging from 20 μM to […].
A 10 μL cell suspension containing 4000 cells was plated in Costar® half-area white opaque 96-well plates (Corning, cat no. 3693). Then 10 μL of assay buffer (basal activity), 200 nM of amidated rat ANP (maximum activity) or 2× working stock solutions of test polypeptides were transferred into the plate. Final concentration of DMSO in each well was 0.5%. The plate was shaken for 15 sec and then incubated for 40 min at room temperature.
The cGMP generated was measured using cGMP kit following the manufacturer's directions, as described below.

[1] abbreviates: cGMP Assay (EC50, pM) w/Casein hNPRA, assay buffer with 0.1% casein.
The mark [2] stands for this setting: assay buffer with 0.1% BSA, read-out: cGMP Assay (EC50, pM) w/BSA hNPRA.

The results in this text go back to patent US20240174727A1, “LONG-ACTING NATRIURETIC PEPTIDES AND USES THEREOF” (Eli Lilly and Company, priority 2022, published 2024).

Where two headings read alike, the source gives them in different places. Numbered stars: 1 amine (or outer) side, 2 acyl side, 3 side chain; on linkers, the order of the positions; unused ones are H or OH. Bridge positions count the residues as written; N and C are the ends. Square brackets hold non-standard residues; d marks the D form. Peptide text beside a SMILES is read from it. * marks the point of attachment. PEG24 = NCCOCCOCCOCCOCCOCCOCCOCCOCCOCCOCCOCCOCCOCCOCCOCCOCCOCCOCCOCCOCCOCCOCCOCCOCCC(=O)O; C20 diacid = O=C(O)CCCCCCCCCCCCCCCCCCC(=O)*; γGlu = O=C(O)[C@H](CCC(=O)[*:2])N[*:1]; 4Pal = N[C@@H](Cc1ccncc1)C(=O)O; Aib = CC(C)(N)C(=O)O; CH2 = C([*:1])[*:2]

Compound `CC[C@H](C)[C@@H]1NC(=O)[C@H](CCCNC(=N)N)NC(=O)[C@H](CC(=O)O)NC(=O)[C@H]([C@@H](C)CC)NC(=O)[C@H](CCCNC(=N)N)NC(=O)CNC(=O)CNC(=O)[C@H](Cc2ccccc2)NC(=O)[C@@H](NC(=O)[C@H](CO)NC(=O)[C@H](CO)NC(=O)[C@H](CCCNC(=N)N)NC(=O)[C@H](CCCNC(=N)N)NC(=O)[C@H](Cc2ccncc2)NC(=O)[C@H](CO)NC(=O)CNC(=O)[C@H](CCCCN)NC(=O)[C@H](CCC(=O)O)NC(=O)[C@H](CCCCN)NC(=O)[C@H](CCC(=O)O)NC(=O)[C@H](CCCCN)NC(=O)[C@H](CCC(=O)O)NC(=O)CC[C@H](NC(=O)CCCCCCCCCCCCCCCCCCC(=O)O)C(=O)O)CSCSC[C@@H](C(=O)N2CCC[C@H]2C(=O)N[C@@H](CO)C(=O)N[C@@H](Cc2ccccc2)C(=O)N[C@@H](CCCNC(=N)N)C(=O)N[C@@H](Cc2c[nH]cn2)C(=O)NCC(=O)NCC(=O)N2CCC[C@H]2C(=O)N[C@@H](CO)C(=O)N[C@@H](CO)C(=O)NCC(=O)N[C@@H](C)C(=O)N2CCC[C@H]2C(=O)N2CCC[C@H]2C(=O)N2CCC[C@H]2C(=O)N[C@@H](CO)C(N)=O)NC(=O)CNC(=O)[C@H](CC(C)C)NC(=O)CNC(=O)[C@H](CO)NC(=O)[C@H](CCC(N)=O)NC(=O)[C@H](Cc2c[nH]cn2)NC(=O)CNC1=O` [Example 2] yielded an EC50 under setting [1] of 1020 pM. On to `CC[C@H](C)[C@@H]1NC(=O)[C@H](CCCNC(=N)N)NC(=O)[C@H](CC(=O)O)NC(=O)[C@H]([C@@H](C)CC)NC(=O)[C@H](CCCNC(=N)N)NC(=O)[C@H](CCCCN)NC(=O)CNC(=O)[C@H](Cc2ccccc2)NC(=O)[C@@H](NC(=O)[C@H](CO)NC(=O)[C@H](CO)NC(=O)[C@H](CCCNC(=N)N)NC(=O)[C@@H]2CCCN2C(=O)[C@H](CCCCN)NC(=O)[C@H](CCC(=O)O)NC(=O)CNC(=O)[C@H](CCCCN)NC(=O)[C@H](CCC(=O)O)NC(=O)[C@H](CCCCN)NC(=O)[C@H](CCC(=O)O)NC(=O)[C@H](CCCCN)NC(=O)[C@H](CCC(=O)O)NC(=O)CC[C@H](NC(=O)CCCCCCCCCCCCCCCCCCC(=O)O)C(=O)O)CSCSC[C@@H](C(=O)N2CCC[C@H]2C(=O)N[C@@H](CO)C(=O)N[C@@H](Cc2ccccc2)C(=O)N[C@@H](CCCNC(=N)N)C(=O)N[C@@H](Cc2c[nH]cn2)C(=O)NCC(=O)N[C@@H](CO)C(=O)N2CCC[C@H]2C(=O)N[C@@H](CO)C(=O)N[C@@H](CO)C(=O)NCC(=O)N[C@@H](C)C(=O)N2CCC[C@H]2C(=O)N2CCC[C@H]2C(=O)N2CCC[C@H]2C(=O)N[C@@H](CO)C(N)=O)NC(=O)CNC(=O)[C@H](CC(C)C)NC(=O)CNC(=O)[C@H](CO)NC(=O)[C@H](Cc2ccc(O)cc2)NC(=O)[C@H](CCCN)NC(=O)CNC1=O` [Example 135], for which the EC50 runs as follows: (cGMP Assay (EC50, pM) w/BSA hNPRA, assay buffer with 0.1% BSA) 104000 pM; under setting [1], 497 pM.

Turning to `CC[C@H](C)[C@@H]1NC(=O)[C@H](CCCNC(=N)N)NC(=O)[C@H](CC(=O)O)NC(=O)[C@H]([C@@H](C)CC)NC(=O)[C@H](CCCNC(=N)N)NC(=O)CNC(=O)[C@H](Cc2ccncc2)NC(=O)[C@H](Cc2ccccc2)NC(=O)[C@@H](NC(=O)[C@H](CO)NC(=O)[C@H](CO)NC(=O)[C@H](CCCNC(=N)N)NC(=O)[C@H](CCCNC(=N)N)NC(=O)[C@H](CC(C)C)NC(=O)[C@H](CO)NC(=O)CNC(=O)[C@H](CCCCN)NC(=O)[C@H](CCC(=O)O)NC(=O)[C@H](CCCCN)NC(=O)[C@H](CCC(=O)O)NC(=O)[C@H](CCCCN)NC(=O)[C@H](CCC(=O)O)NC(=O)CC[C@H](NC(=O)CCCCCCCCCCCCCCCCCCC(=O)O)C(=O)O)CSSC[C@@H](C(=O)N[C@@H](CC(N)=O)C(=O)N[C@@H](CO)C(=O)N[C@@H](Cc2ccccc2)C(=O)N[C@@H](CCCNC(=N)N)C(=O)N[C@@H](Cc2ccc(O)cc2)C(N)=O)NC(=O)CNC(=O)[C@H](CC(C)C)NC(=O)CNC(=O)[C@H](CO)NC(=O)[C@H](CCC(N)=O)NC(=O)[C@H](C)NC(=O)CNC1=O` [Example 13] ({C20 diacid-γGlu}-EKEKEKGSLRRSSCF[4Pal]GRIDRIGAQSGLGCNSFRY-NH2; disulfide 14-30), the EC50 under setting [2] is 145000 pM. On the same count and under the same terms, the same measure for `CC[C@H](C)[C@@H]1NC(=O)[C@H](CCCNC(=N)N)NC(=O)[C@H](CC(=O)O)NC(=O)[C@H]([C@@H](C)CC)NC(=O)[C@H](CCCNC(=N)N)NC(=O)CNC(=O)CNC(=O)[C@H](Cc2ccccc2)NC(=O)[C@@H](NC(=O)[C@H](CO)NC(=O)[C@H](CO)NC(=O)[C@H](CCCNC(=N)N)NC(=O)[C@H](CCCNC(=N)N)NC(=O)[C@H](CC(C)C)NC(=O)[C@H](CO)NC(=O)CNC(=O)[C@H](CCCCN)NC(=O)[C@H](CCC(=O)O)NC(=O)[C@H](CCCCN)NC(=O)[C@H](CCC(=O)O)NC(=O)[C@H](CCCCN)NC(=O)[C@H](CCC(=O)O)NC(=O)CC[C@H](NC(=O)CCCCCCCCCCCCCCCCCCC(=O)O)C(=O)O)CSSC[C@@H](C(=O)N[C@@H](CC(N)=O)C(=O)N[C@@H](CO)C(=O)N[C@@H](Cc2ccccc2)C(=O)N[C@@H](CCCNC(=N)N)C(=O)N[C@@H](Cc2ccncc2)C(N)=O)NC(=O)CNC(=O)[C@H](CC(C)C)NC(=O)CNC(=O)[C@H](CO)NC(=O)[C@H](CCC(N)=O)NC(=O)[C@H](C)NC(=O)CNC1=O` [Example 9] ({C20 diacid-γGlu}-EKEKEKGSLRRSSCFGGRIDRIGAQSGLGCNSFR[4Pal]-NH2; disulfide 14-30): 101000 pM. Consider “{C20 diacid-γGlu}-EKEKEKG[PEG24]S[4Pal]RRSSCFGGRIDRIGHQSGLGCPSFRHGGPPS[Aib]KPPPK-NH2 (linker 15-31 via CH2) [Example 84]”, for which the EC50 (assay buffer with 0.1% casein, read-out: cGMP Assay (EC50, pM) w/Casein hNPRA) amounted to 1010 pM.
